Measurements: patent publication US5607926A, “Cephalosporin antibiotics” (Microcide Pharmaceuticals, Inc., priority 1995, dated 1997)
Converted amounts (≈) assume the structure as drawn. Counter-ions that a name gives are not always drawn. Like-named read-outs stand apart in the source and are kept apart here.

Experiments:
E. faecium ATCC 35667 = experiment: In vitro antibacterial evaluation, MIC by agar dilution, E. faecium ATCC 35667; format: cell-based; details: Enterococcus faecium, ATCC35667, read-out: MIC
How it was run: (§1)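 In this standardized agar dilution format, compound was dissolved in PBS pH 7.2, with Tween 20 or DMSO as needed, and mixed into molten Mueller-Hinton agar to final levels of 128 down to ≤0.25 μg/mL. About 10^4 cfu were spotted per isolate, and MIC was recorded after 16-20 h at 35°-36° C.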

[1] = tested on: S. epidermidis ATCC 31432; experiment: In vitro antibacterial evaluation, MIC by agar dilution, S. epidermidis ATCC 31432; format: cell-based; details: Staphylococcus epidermidis, ATCC31432
How it was run: as §1

S. haemolyticus (Meth^R) = experiment: In vitro antibacterial evaluation, MIC by agar dilution, S. haemolyticus; format: cell-based; details: Staphylococcus haemolyticus, read-out: MIC
How it was run: as §1

S. aureus ATCC 25923 = experiment: In vitro antibacterial evaluation, MIC by agar dilution, S. aureus ATCC 25923; format: cell-based; details: Staphylococcus aureus, ATCC25923
How it was run: as §1

E. coli ATCC 25922 = experiment: In vitro antibacterial evaluation, MIC by agar dilution, E. coli ATCC 25922; format: cell-based; details: Escherichia coli, ATCC25922, read-out: MIC
How it was run: as §1

P. aeruginosa ATCC 27853 = experiment: In vitro antibacterial evaluation, MIC by agar dilution, P. aeruginosa ATCC 27853; format: cell-based; details: Pseudomonas aeruginosa, ATCC27853, read-out: MIC
How it was run: as §1

[2] = tested on: S. aureus 76 (Meth^R)(lac^+); experiment: In vitro antibacterial evaluation, MIC by agar dilution, S. aureus 76; format: cell-based; details: Staphylococcus aureus, read-out: MIC
How it was run: as §1

E. faecalis ATCC 29212 = experiment: In vitro antibacterial evaluation, MIC by agar dilution, E. faecalis ATCC 29212; format: cell-based; details: Enterococcus faecalis, ATCC29212
How it was run: as §1

S. aureus ATCC 29213 = experiment: In vitro antibacterial evaluation, MIC by agar dilution, S. aureus ATCC 29213; format: cell-based; details: Staphylococcus aureus, ATCC29213
How it was run: as §1

[3] = tested on: S. aureus Col8A (Meth^S)(lac^-); experiment: In vitro antibacterial evaluation, MIC by agar dilution, S. aureus Col8A; format: cell-based; details: Staphylococcus aureus
How it was run: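 Log-phase isolates were spot-inoculated at about 10^4 cfu onto Mueller-Hinton agar carrying duplicate two-fold compound levels, 128 μg/mL to ≤0.25 μg/mL, following NCCLS (1991). Plates were read after 16-20 h at 35°-36° C. The lowest growth-inhibiting concentration gave the MIC (μg/ml).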

[4] = tested on: methicillinsusceptible S. aureus strain ATCC 13709; experiment: In vivo antibacterial evaluation, murine model for lethal bacteremic peritonitis; design: species or system S. aureus in female Swiss-Webster mice; details: Staphylococcus aureus, ATCC13709, sc, 72 h, two equal SC doses at challenge and 2 hours later, mice, probit
Protocol: Groups of 5 female Swiss-Webster mice (Simonsen, Gilroy, Calif.) each are challenged by the intraperitoneal (IP) route with ten-fold increments of a bacterial inoculum. This permits calculation of the mean lethal dose (LD50) and the LD100. For preliminary evaluation of a new antibiotic, mice are challenged IP with an LD100 titer of bacteria. In two equal doses administered at the time of bacterial challenge and 2 hours later, groups of 10 mice each are treated subcutaneously with two-fold increments of the test drug and an antibiotic of known efficacy in mice and humans (i.e., positive control). Mice are observed for 72 h. Those alive at 72 h are considered long term survivors. The total drug dose in mg/kg that protects 50% of mice in a group from death is termed the mean protective dose (PD50). PD50 s are similarly determined for several pathogens. The quantitative endpoints for the new drug are then compared with those obtained with reference antibiotics.
Six ten-fold dilutions of inoculum suspended in 0.5 mL of sterilized 7% hog gastric mucin (Sigma) are injected IP in groups of 5 mice each. A control group of 5 mice receive mucin alone. Mice are observed for 72 h. Those alive at 72 h are considered long term survivors. The mean lethal dose (LD50) and 100% lethal dose (LD100) are determined by the probit test.
For antibiotic efficacy studies, mice are challenged IP with bacterial titers that will afford an LD100 for the test strain. In two equal doses administered at the time of bacterial challenge and 2 hours later, groups of 10 mice each are treated by the subcutaneous route (SC) with twofold increments of the test antibiotic; another group is treated similarly with a reference antibiotic of known efficacy in animals and man. Drug doses can range from 0.01 to 512 mg/kg. If the drug is poorly soluble, Tween 20 or propylene glycol will be employed to solubilize the drug. Animals are observed for 72 h. The 50% protective dose (PD50) is calculated in mg/kg by the probit method. The PD50 is the same as the 50% effective dose (ED50) and the 50% curative dose (CD50). Samples of blood from the hearts of all animals that die and from half the mice that survive are cultured on brain-heart infusion agar. Animals that received a protective dosage of the test drug will be alive at 72 h, although they may appear moderately ill to very ill during the observation period. […] Most of these mice will die within 6 to 48 h. Those alive at 72 h will be considered long term survivors.
(§2) data reported for challenge with methicillinsusceptible S. aureus strain

[5] = tested on: methicillinsusceptible S. aureus strain ATCC 13709; experiment: Challenge strain MIC; format: cell-based; details: Staphylococcus aureus
Protocol: The compounds of the invention were evaluated against several β-lactamresistant bacteria strains by determining the minimum inhibitory concentration (MIC, μg/ml) of each compound with respect to each strain. The MIC, the lowest concentration of antibiotic which inhibits growth of the test organism, was determined by the agar dilution method.
To determine the MIC for bacterial isolates, the test compound was incorporated in a series of two-fold dilutions into liquified Mueller-Hinton agar. Upon solidification, a number of different bacterial strains were spot inoculated with a replicating device onto the agar surface. […] The procedures used in these studies have been standardized by the National Committee for Clinical Laboratory Standards (NCCLS), as per the NCCLS publication entitled METHODS FOR DILUTION ANTIMICROBIAL SUSCEPTIBILITY TESTS (1991), which is incorporated herein by reference.
Aliquots of antimicrobial agents were prepared in phosphate buffered saline (PBS) at pH 7.2. Tween 20 or DMSO was used as a solubilizing vehicle as needed. Standard methods of vortexing, sonicating and gentle heat were used to facilitate solubilizing the test agent. Typically, the concentration of the stock solution was 10× that of the highest drug concentration tested. A 1.28 mg/mL stock solution was used with a subsequent highest working concentration of 128 μg/mL. Serial two-fold dilutions were done through ≤0.25 μg/mL. Each drug level was tested in duplicate. Two-fold drug dilutions were done in sterile 50 mL tubes with a final drug volume of 5 mL. Upon the addition of 45 mL of molten agar, a 10-fold dilution resulted. Two, 25 mL. plates were then poured into 15×150 mm square Petri plates with grids and allowed to harden.
A control plate with a reference drug, either cefotaxime, vancomycin or imipenem, was used as the positive growth control. Stock concentrations of reference antibiotics were prepared and frozen at -80° C. Upon preparation, the control plates were sealed and stored in the refrigerator for up to 1 week prior to use; however, imipenem control plates had to be prepared just prior to use. All test plates were used within 24 hours of preparation.
Satisfactory results were obtained where the inoculum contained about 10^4 colony forming units (cfu) ±0.5 logs. Starting with pure cultures of the test isolates on agar plates, a few isolated colonies were transferred to a tube of nutrient broth and allowed to grow 4-6 hours at 35°-36° C. to reach log-phase growth. Dropwise addition of the broth culture to PBS was done to match a 0.5 McFarland turbidity standard equal to 10^8 cfu/mL. This was further diluted ten-fold in PBS to reach a working inoculum concentration of 10^7 cfu/mL. When 1 μL of the working inoculum was applied to the agar surface a concentration of about 10^4 cfu per spot was obtained.
Disposable sterile 1 μL loops were used to inoculate test plates, with each isolate in a designated grid on the agar plate. An alternate method of inoculation involved the use of a replica plater, a device with 48 steel pins allowing the simultaneous inoculation of multiple isolates. After the spots had dried, the plates were incubated at 35°-36° C. for 16-20 hours. Endpoints were assessed as the minimum inhibitory concentration (MIC) of antimicrobial agent.
as §2

[6] = E. faecalis ATCC 29212, read-out: MIC
[7] = S. aureus ATCC 29213, read-out: MIC

| SMILES | MIC (E. faecium ATCC 35667) [µg/mL] | MIC [1] [µg/mL] | MIC (S. haemolyticus (Meth^R)) [µg/mL] | MIC (S. aureus ATCC 25923) [µg/mL] | MIC (E. coli ATCC 25922) [µg/mL] | MIC (P. aeruginosa ATCC 27853) [µg/mL] | MIC [2] [µg/mL] | MIC (E. faecalis ATCC 29212) [µg/mL] | MIC (S. aureus ATCC 29213) [µg/mL] | MIC [3] [µg/mL] | ED50 ([4]; read-out: ED50) [mg/kg] | MIC (E. faecalis ATCC 29212; [6]) [µg/mL] | MIC (S. aureus ATCC 29213; [7]) [µg/mL] | MIC ([5]; ATCC13709, S. aureus ATCC 13709, read-out: Challenge str MIC) [µg/mL] | ED50 [4] [mg/kg] | MIC ([5]; ATCC13709, read-out: Challenge str MIC) [µg/mL] |
| --- | --- | --- | --- | --- | --- | --- | --- | --- | --- | --- | --- | --- | --- | --- | --- | --- |
| O=C(Cc1ccccc1)N[C@@H]1C(=O)N2C(C(=O)O)=C(Sc3snnc3-c3ccccc3)CS[C@H]12 [Cmpd 93, (7R)-7-[(Phenylacetyl)amino]-3-(4-phenyl-1,2,3-thiadiazol-5-ylthio)-3-cephem-4-carboxylic acid] | 0.5 (≈ 0.979 µM) | < 0.25 | 8 (≈ 15.7 µM) | < 0.25 | > 32 | > 32 | 8 (≈ 15.7 µM) | < 0.25 | < 0.25 | < 0.25 |  |  |  |  |  |  |
| CC(C)N=C(NC(C)C)SCC(=O)N[C@@H]1C(=O)N2C(C(=O)O)=C(Sc3ccccc3CSC(=N)N)CS[C@H]12 [Cmpd 125, (7R)-7-[((N,N'-diisopropylisothiouronium)acetyl)amino]-3-(2-isothiouroniummethylphenylthio)-3-cephem-4-carboxylate, trifluoroacetic acid salt] | 2 |  | 8 |  | > 32 | > 32 | 8 |  |  | 0.5 | > 10 | 0.25 | 0.5 |  |  |  |
| CSCC(=O)N[C@@H]1C(=O)N2C(C(=O)O)=C(Sc3ccccc3CSC(=N)N)CS[C@H]12 [Cmpd 127, (7R)-7-[(methylthioacetyl)amino]-3-(2-isothiouroniummethylphenylthio)-3-cephem-4-carboxylate, inner salt] | 1 |  |  |  | > 32 | > 32 | 8 |  |  | ≤ 0.06 | 0.59 | 1 | ≤ 0.06 |  |  |  |
| O=C(CS/C=C\Cl)N[C@@H]1C(=O)N2C(C(=O)O)=C(Sc3ccnn3-c3ccccc3)CS[C@H]12 [Cmpd 131, (7R)-7-[((Z-2-Chlorovinyl)thioacetyl)amino]-3-(1-N-phenylpyrazol-5-ylthio)-3-cephem-4-carboxylic acid] | 1 (≈ 1.96 µM) |  | 32 (≈ 62.9 µM) |  | > 32 | > 32 | 4 (≈ 7.86 µM) |  |  |  | 1.73 | 0.5 (≈ 0.982 µM) |  | 0.06 (≈ 0.118 µM) |  |  |
| CN[C@H](CC(C)C)C(=O)N[C@H]1C(=O)N[C@@H](CC(N)=O)C(=O)N[C@H]2C(=O)N[C@H]3C(=O)N[C@H](C(=O)N[C@H](C(=O)O)c4cc(O)cc(O)c4-c4cc3ccc4O)[C@H](O)c3ccc(c(Cl)c3)Oc3cc2cc(c3O[C@@H]2O[C@H](CO)[C@@H](O)[C@H](O)[C@H]2O[C@H]2C[C@](C)(N)[C@H](O)[C@H](C)O2)Oc2ccc(cc2Cl)[C@H]1O [Vancomycin, reference compound] |  |  |  |  |  |  |  |  |  |  |  |  |  |  | 2.81 | 1 (≈ 0.69 µM) |
